# Assay results published in patent publication US20110251135A1, “INHIBITORS OF PERITONEAL SEEDING OF CANCER CELLS” (University of Utah Research Foundation, priority 2008, published 2011).
# Entries after “also recorded” stand apart in the source; their conditions may differ. Where a SMILES comes first, the peptide text is derived from it. The star is where a group is joined. Cbz = O=C(OCc1ccccc1)*
# Key:
# [1] = test system: colon and pancreatic cancer cells; test: Apoptosis of colon and pancreatic cancer cells during readhesion; format: cell-based, human
# [2] = test system: HT-29 cells; test: Cell survival and readhesion assay (crystal violet); format: cell-based, human; details: HT-29 (overexpress PPARγ); 30 μM GW 9662
# Text: (§1) Untreated adherent monolayers (Control) and Jurkat cells treated with TNFα (Jurkat Control) served as controls. The cells were collected and analyzed for NF-κB activation in an ELISA (see Methods). […] The floating and readherent cells were collected and lysed. Aliquots of the cell lysates were used to generate cleaved PARP immunoblots. All lanes contain equal total protein concentrations and the actin blot served as a loading control. The blots shown are typical of duplicate experiments. […] The floating cells were washed away and the adherent cells were then fixed and stained with crystal violet. The cells were lysed in deoxycholate and the intensity of the staining quantified by spectrophotometry. The results are normalized to the controls.
# (§2) FIGS. 13A-B show transiently suspended Su.86 (PPARγ-negative) and HT-29 (PPARγ-positive) cancer cells were allowed to readhere in the presence of various concentrations of ciglitazone for 8 hours. The cells were also incubated with or without the irreversible PPARγ inhibitor GW9662 during readhesion. The floating cells were washed away and the adherent cells were then fixed and stained with crystal violet. The cells were lysed in deoxycholate and the intensity of the staining quantified by spectrophotometry. The results are normalized to the controls. […]
# [3] = test system: Su.86 cells; test: as above; format: cell-based, human; details: Su.86 (lack PPARγ); 30 μM GW 9662
# Text: as §1, §2
# [4] = test system: adherent HT-29 cells; test: Annexin V-FITC apoptosis assay, adherent cells; format: cell-based, human; details: adherent HT-29; 24 hours; BAY compounds at doses up to 20, MG-132 20 μM
# Text: FIG. 3 is a group of graphs that show NF-κB inhibitors cause apoptosis of colon cancer cells. […] The data points represent the average percent of annexin V-positive, propidium iodide-negative cells (of the total cells counted) from triplicate experiments. The error bars represent the standard error of the means. […] The results shown are a graphic representation of individual flow cytometry results expressed as the percentage of cells that were annexin V-positive of those that excluded propidium iodide. […] An immunoblot of the lysates for cleaved PARP was performed. Each lane represents equal total protein concentrations. […] The cells were allowed to adhere to plastic dishes for 1 hour after which they were washed gently in PBS and stained with crystal violet. The crystal violet stained cells were solubilized in deoxycholate and the absorbance detected in a spectrophotometer at 590 nm. The adherent cells were expressed as a fraction of the controls. Each data point represents the average of triplicate experiments and the error bars the standard errors of the means.
# The data points represent the means of triplicate experiments and the error bars the standard errors of the means. […] The percent of apoptotic cells was then determined by the annexin V assay. […] The results shown are typical of two separate experiments. […] Immunoblots were performed for c-IAP-2, TRAF-1, TRAF-2, and FLIP. All lanes contain equal total protein.
# (§3) Single cell suspensions were plated at 100,000 cells per well in 24-well plates in media containing DMSO, BAY 11-7082, BAY 11-7085, or MG-132 for 8-24 hours in an incubator. Alternatively, DMSO, BAY 11-7082, BAY 11-7085, or MG-132 were added to cells that were confluent and adherent for several days. The nonadherent cells were aspirated off with the media and spun for 3 minutes at 2,000 rpm in 15 mL polypropylene tubes. The adherent cells were washed twice with PBS, dispersed in trypsin, and spun down for 3 minutes at 2,000 rpm in 15 mL polypropylene tubes. The nonadherent and adherent cells were resuspended in 1× binding buffer (10 mM HEPES/NaOH, pH 7.4, 140 mM NaCl, and 2.5 mM CaCl2) to a final concentration of 10^6 cells/mL. 100 μL of the cell solution were transferred to a 5 mL culture tube and incubated with 5 μL of annexin V-FITC-conjugated monoclonal antibody (Pharmingen) and 10 μl, of propidium iodide (from a 50 μg/mL stock solution made in PBS) in the dark at 25° C. for 15 minutes. 400 μL of binding buffer was added to each tube and the cells were analyzed by flow cytometry immediately. The percent of apoptosis was determined as the percent of annexin V-positive, propidium iodide-negative cells of the total cells counted.
# [5] = test system: HCT-116 cells; test: Cleaved PARP immunoblot of adherent and non-adherent cells; format: cell-based, human; details: 20 μM MG-132 for 24 hours
# Text: FIG. 3 is a group of graphs that show NF-κB inhibitors cause apoptosis of colon cancer cells. […] The data points represent the average percent of annexin V-positive, propidium iodide-negative cells (of the total cells counted) from triplicate experiments. The error bars represent the standard error of the means. […] The results shown are a graphic representation of individual flow cytometry results expressed as the percentage of cells that were annexin V-positive of those that excluded propidium iodide. […] An immunoblot of the lysates for cleaved PARP was performed. Each lane represents equal total protein concentrations. […] The cells were allowed to adhere to plastic dishes for 1 hour after which they were washed gently in PBS and stained with crystal violet. The crystal violet stained cells were solubilized in deoxycholate and the absorbance detected in a spectrophotometer at 590 nm. The adherent cells were expressed as a fraction of the controls. Each data point represents the average of triplicate experiments and the error bars the standard errors of the means. […]
# (§4) For immunodetection, the blocked blots were probed with primary antibody for 2 hours at 4° C. on a rocker. […] Alkaline phosphatase was detected by a colorimetric reaction using a BCIP (5-bromo-4-chloro-3-indolyl phosphate)/NBT (nitroblue tetrazolium) kit (Zymed).
# [6] = test system: HT-29 cells; test: Cleaved PARP immunoblot of adherent and nonadherent cells; format: cell-based, human; details: 20 μM MG-132 for 8 h
# Experimental: The cells were washed twice in ice cold PBS and then lysed in 4° C. lysis buffer (50 mM HEPES, 150 mM NaCl, 1.5 mM MgCl2, 1 mM EGTA, 100 mM NaF, 10 mM Na2PO4, 1 mM Na3VO4, 10% glycerol, 1% TRITON™ X-100, and 1 μg/mL each of aprotinin, leupeptin, chymostatin, pepstatin) and clarified at 12,000 rpm at 4° C. for 15 minutes. The lysates were normalized for total protein concentration. Aliquots of the lysates were then mixed 1:1 in sample buffer (125 mM Tris-HCl (pH 6.8), 20% glycerol, 4% sodium dodecyl sulfate, 2% β-mercaptoethanol, 10 μg/mL bromophenol blue) and boiled for 3 minutes. The samples were loaded onto SDS-PAGE gels (7.5 or 10% acrylamide). The proteins were transferred to nitrocellulose from the gels and incubated in blocking buffer (1% bovine serum albumin (Bio-Rad), 100 mM Tris-Cl (pH 7.4), 0.9% NaCl, 0.1% Nonidet) overnight at 4° C.
# as §4
# It was confirmed in HT-29 cells that were treated with increasing concentrations of BAY 11-7085 for 24 h. After separating the HT-29 cells that remained adherent and those that became nonadherent after BAY 11-7085 treatment, the percentage of apoptotic cells was determined for each group. […]
# [7] = test system: transiently suspended HT-29 cells; test: Apoptosis of transiently suspended cells during readhesion (annexin V assay); format: cell-based, human; details: various concentrations, 4 hours; compared with BAY 11-7085
# Experimental: HT-29 cells that were either transiently suspended with trypsin-EDTA or adherent for three days, were treated at time zero with DMSO or 10-100 μM BAY 11-7085. The percent of apoptotic cells was determined using the annexin V flow cytometry assay and graphed versus the dose of BAY 11-7085. FIG. 4B are photographs showing DLD-1, FIG. 4C are photographs showing HCT-116, and FIG. 4D are photographs showing HT-29 cells that were transiently suspended in trypsin-EDTA and allowed to readhere to glass coverslips for 1-24 hours. The cells were fixed and immunostained with an NF-κB p65 subunit monoclonal antibody.
# The transiently suspended cells were lysed and allowed to bind to DNA oligonucleotides, containing the NF-κB consensus binding site, that were immobilized to 96-well plates. NF-κB protein bound to the oligonucleotides was detected by an antibody to the p65 subunit that only recognized p65 that is bound to DNA. The positive control was HeLa cells that were stimulated with TNFα. A control was performed using excess free NF-κB oligonucleotides (Competitor). […] NF-κB binding activity was determined by the TransAM assay as in FIG. 5A. […] The data shown represent typical results of three separate experiments. […] An immunoblot for COX-2 was performed.
# The percentage of apoptotic cells was determined using the annexin V assay. The data points represent the averages of three experiments; bars, +−.SE. E. DLD-1 and F. HT-29 cells were transduced with an adenovirus containing the IκB super-repressor construct. After 3 days, the cells were transiently suspended and allowed to readhere in the presence of subapoptotic concentrations of BAY 11-7085 or DMSO (vehicle) for 8 hours. The data are expressed as fractions of cells surviving compared with the controls (no adenovirus) and were quantitatively determined by staining the remaining adherent cells with crystal violet.
# as §3
# Various concentrations of BAY 11-7085 were added to HT-29 cells that were transiently suspended in trypsin-PBS for approximately 15 minutes before replating. The transiently suspended cells were quickly allowed to readhere in order to prevent anoikis. Alternatively, BAY 11-7085 was added to adherent HT-29 cell monolayers.
# [8] = test system: JNK; test: JNK activity (phosphorylation of c-JUN) in colon and pancreatic cancer cell lines; format: cell-based, human
# [9] = test system: FLIP; test: FLIP expression in pancreatic and colon cancer cell lines; format: cell-based, human; details: anisomycin 1.5 and 4 hours
# Experimental: In order to determine the role of JNK activity in FLIP downregulation, pancreatic and colon cancer cell lines were treated with anisomycin for 1.5 and 4 hours.
# [10] = humans; after a single or multiple oral doses; read-out: Cmax blood levels; cited from earlier work
# [11] = test system: RANK; test: NF-κB activation in colon cancer cell lines incubated with soluble RANK; format: cell-based, human
# Text: Of other members of the TNF receptor superfamily, Receptor Activator of NF-κB (RANK) is highly expressed in the digestive tract. […] Thus, RANK appears to be important in the activation of NF-κB during colon cancer cell readhesion.
molecule,measurement,setting,value
O=C(Nc1ccccc1)c1cc([N+](=O)[O-])ccc1Cl [GW9662],effect of GW9662 on the pro-apoptotic activity of pioglitazone,[1]; cancer cell readhesion,failed to inhibit the pro-apoptotic activity of pioglitazone
same,effect of GW 9662 on the efficacy of ciglitazone,[2],did not significantly affect the efficacy of ciglitazone
same,effect of GW 9662 on the efficacy of ciglitazone,[3],did not significantly affect the efficacy of ciglitazone
"CC(C)C[C@@H](C=O)NC(=O)[C@H](CC(C)C)NC(=O)[C@H](CC(C)C)NC(=O)OCc1ccccc1 [MG-132, N-[(phenylmethoxy)carbonyl]-leucyl-N-[(1S)-1-formyl-3-methylbutyl]-L-leucinamide] (Cbz-Leu-Leu-Leu-aldehyde)","level of apoptosis (annexin V-positive, propidium iodide-negative cells)",[4],relatively greater for MG-132 than BAY 11-7085; also recorded: caused a greater increase in apoptosis
same,cleaved PARP in cells that remained adherent,[5],only a small increase in cleaved PARP
same,cleaved PARP in non-adherent cells,[5],large increase in cleaved PARP
same,cleaved PARP in cells that remained adherent,[6],only a small increase in cleaved PARP
same,cleaved PARP in nonadherent cells,[6],large increase in cleaved PARP
same,induction of apoptosis of HT-29 cells during readhesion,[7],more potently induced apoptosis
COc1ccc(C[C@H]2NC[C@H](O)[C@H]2OC(C)=O)cc1 [anisomycin],apoptosis during cell readhesion,"[1]; colon and pancreatic cancer cell lines, anisomycin alone","not as effective as BAY 11-7085, anisomycin induced apoptosis"
same,effect on pro-apoptotic activity of BAY 11-7085,"[1]; readhering colon and pancreatic cancer cells, anisomycin with BAY 11-7085",increased the pro-apoptotic activity of BAY 11-7085
same,JNK activity (phosphorylation of c-JUN),[8],readily induced JNK activity
same,FLIP expression,[9],caused a decrease in FLIP expression
CCc1ccc(CCOc2ccc(CC3SC(=O)NC3=O)cc2)nc1 (stereo not drawn) [pioglitazone],Cmax,[10],2500 nM
"soluble RANK: soluble Receptor Activator of NF-κB, inhibits ligand-dependent RANK activation (protein, UniProt Q9Y6Q6 30-212, looked up, extracellular domain) extracellular domain: IAPPCTSEKHYEHLGRCCNKCEPGKYMSSKCTTTSDSVCLPCGPDEYLDSWNEEDKCLLHKVCDTGKALVAVVAGNSTTPRRCACTAGYHWSQDCECCRRNTECAPGLGAQHPLQLNKDTVCKPCLAGYFSDAFSSTDKCRPWTNCTFLGKRVEHHGTEKSDAVCSSSLPARKPPNEPHVYLP",activation of NF-κB,[11],significantly reduced the activation of NF-κB
